{"source": "patent US20070275382A1", "about": "“Biomarkers for the Efficacy of Somatostatin Analogue Treatment” (priority 2003, published 2007)", "system": "Kidney", "experiment": "Microarray gene expression profiling (HG-U95A), kidney", "format": "in vivo, cynomolgus monkeys", "experimental": "Origin of tissue and processing. Male and female cynomolgus monkeys received subcutaneously pasireotide (100 μg/animal/day) or the vehicle for 14 days. On day 15, all animals were sacrificed and tissues for RNA extraction were immediately snap-frozen and kept at −80° C. until processing.\nRNA expression profiling was conducted by means of the HG-U95A gene expression probe array (Affymetrix; Santa Clara, Calif. USA), containing more than 12,600 probe sets interrogating primarily full-length human genes and also some control probe sets. The experiment was conducted according to the recommendations of the manufacturer. Briefly, total RNA was obtained by acid guanidinium thiocyanate-phenol-chloroform extraction (Trizol®, Invitrogen Life Technologies, San Diego, Calif. USA) from each frozen tissue section. The total RNA was then purified on an affinity resin (Rneasy®, Qiagen) and quantified. Double stranded cDNA was synthesized with a starting amount of approximately 5 μg full-length total RNA using the Superscript® Choice System (Invitrogen Life Technologies, Carlsbad, Calif. USA) in the presence of a T7-(dT)24 DNA oligonucleotide primer. Following synthesis, the cDNA was purified by phenol/chloroform/isoamyl alcohol extraction and ethanol precipitation. The purified cDNA was then transcribed in vitro using the BioArray® High Yield RNA Transcript Labeling Kit (ENZO, Farmingdale, N.Y. USA) in the presence of biotinylated ribonucleotides form biotin labelled cRNA. The labelled cRNA was then purified on an affinity resin (Rneasy®, Qiagen), quantified and fragmented. An amount of approximately 10 μg labelled cRNA was hybridized for 16 hours at 45° C. to an expression probe array. The array was then washed and stained twice with streptavidin-phycoerythrin (Molecular Probes,) using the GeneChip® Fluidics Workstation 400 (Affymetrix, Santa Clara, Calif. USA). The array was then scanned twice using a confocal laser scanner (GeneArray® Scanner, Agilent, Palo Alto, Calif. USA) resulting in one scanned image. This resulting “.dat-file” was processed using the MAS4 program (Affymetrix) into a “.cel-file”. The “.cel file” was captured and loaded into the Affymetrix GeneChip® Laboratory Information Management System (LIMS). The LIMS database is connected to a UNIX Sun Solaris server through a network filing system that allows for the average intensities for all probes cells (CEL file) to be downloaded into an Oracle database (NPGN). Raw data was converted to expression levels using a “target intensity” of 150. The data were evaluated for quality control and loaded in the GeneSpring® software 4.2.4 (Silicon Genetics, Calif. USA) for analysis.\nOn the human Affymetrix HGU95Av2 chip, probe sets for individual genes contain 20 oligonucleotide pairs, each composed of a “perfect match” 25-mer and a “mismatch” 25-mer differing from the “perfect” match oligonucleotide at a single base. After probe labelling, hybridization, and laser scanning, the expression level was estimated by averaging the differences in signal intensity measured by oligonucleotide pairs of a given probe (AvgDiff value). The fold changes and directions were calculated for selected genes, from the differences of the AvgDiff values between controls and treated.\nTo identify genes that were impacted by pasireotide, the dataset was initially filtered to exclude in a first wave of analysis, genes whose values were systematically in the lower expression ranges where the experimental noise is high (at least 80 in a number of experiments corresponding to the smallest number of replicas of any experimental point). In a second round of selection a threshold p-value of 0.05 (based on a t-test) identified differences between treated and control based on a two component error model (Global Error Model) and, whenever possible, with a stepdown correction for multi-hypothesis testing (Benjamini and Hochberg false discovery rate). […]", "key": {"[1]": {"conditions": "↑ increase, treated vs controls"}, "[2]": {"conditions": "↓ decrease, treated vs controls"}}, "note": "*1 amine or outer side, *2 acyl side, *3 side chain or, on linkers, in order; H or OH if unused. Where a SMILES comes first, the peptide text is derived from it. Side-chain parts run from the residue outwards. [ ]: non-standard residue; d: D form. The star is where a group is joined. Ethylenediamine = C(CN[*:2])N[*:1]; Hyp = O=C(O)[CH]1C[CH](O)CN1; Phg = N[CH](C(=O)O)c1ccccc1; CO = O=C([*:1])[*:2]; Bn = c1ccc(C*)cc1", "data": [{"smiles": "NCCCCC1NC(=O)C(Cc2c[nH]c3ccccc23)NC(=O)C(c2ccccc2)NC(=O)C2CC(OC(=O)NCCN)CN2C(=O)C(Cc2ccccc2)NC(=O)C(Cc2ccc(OCc3ccccc3)cc2)NC1=O", "note": "(stereo not drawn) [Pasireotide, cyclo[4-(NH2—C2H4—NH—CO—O)Pro-Phg-DTrp-Lys-Tyr(4-Bzl)-Phe]] (cyclo(F[Hyp]([CO-Ethylenediamine])[Phg]WKY(Bn)); configuration not given here)", "values": [{"measurement": "IGF-1 expression level, AvgDiff (range)", "setting": "0.1 mg/animal/14day", "result": "25 (20 to 39)"}, {"measurement": "IGFBP2 expression level, AvgDiff (range)", "setting": "0.1 mg/animal/14day", "result": "563 (457 to 655)"}, {"measurement": "IR expression level, AvgDiff (range)", "setting": "0.1 mg/animal/14day", "result": "196 (163 to 265)"}, {"measurement": "SSTR2 expression level, AvgDiff (range)", "setting": "0.1 mg/animal/14day", "result": "126 (93 to 158)"}, {"measurement": "SSTR3 expression level, AvgDiff (range)", "setting": "0.1 mg/animal/14day", "result": "82 (33 to 120)"}, {"measurement": "Adrenomedullin RNA expression fold change", "setting": "[1]", "result": "↑ x1.5"}, {"measurement": "Arginine vasopressin (neurophysin II, antidiuretic hormone, diabetes insipidus, neurohypophyseal) RNA expression fold change", "setting": "[1]", "result": "↑ x2"}, {"measurement": "CDC37 (cell division cycle 37, S. cerevisiae, homolog) RNA expression fold change", "setting": "[1]", "result": "homolog) ↑ x1.5"}, {"measurement": "CSF-1 receptor, formerly McDonough feline sarcoma viral (v-fms) oncogene homolog RNA expression fold change", "setting": "[1]", "result": "homolog ↑ x2.5"}, {"measurement": "Ca++ channel, voltage-dependent, α 1H subunit RNA expression fold change", "setting": "[1]", "result": "subunit ↑ x2"}, {"measurement": "Calcium/calmodulin-dependent protein kinase kinase 2, β RNA expression fold change", "setting": "[1]", "result": "↑ x1.5"}, {"measurement": "Cdk 5, regulatory subunit 2 (p39) RNA expression fold change", "setting": "[1]", "result": "↑ x1.5"}, {"measurement": "Cdki 1A (p21, Cip 1) RNA expression fold change", "setting": "[1]", "result": "Cip 1) ↑ x5"}, {"measurement": "Corticotropin releasing hormone receptor type 2 beta isoform RNA expression fold change", "setting": "[1]", "result": "↑ x1.5"}, {"measurement": "Dopamine receptor D2 RNA expression fold change", "setting": "[1]", "result": "↑ x4.5"}, {"measurement": "Fas/Apo-1/CD95 RNA expression fold change", "setting": "[1]", "result": "↑ x1.5"}, {"measurement": "GABA (A) receptor, γ2 precursor RNA expression fold change", "setting": "[1]", "result": "precursor ↑ x2"}, {"measurement": "GFR-bound protein 7 RNA expression fold change", "setting": "[1]", "result": "protein 7 ↑ x2"}, {"measurement": "GFR-bound protein 14 RNA expression fold change", "setting": "[1]", "result": "protein 14 ↑ x2"}, {"measurement": "Growth arrest-specific 6 RNA expression fold change", "setting": "[1]", "result": "specific 6 ↑ x1.5"}, {"measurement": "IGFBP2 RNA expression fold change", "setting": "[1]", "result": "IGFBP2 ↑ x1.5"}, {"measurement": "IL-7 R precursor RNA expression fold change", "setting": "[1]", "result": "↑ x2"}, {"measurement": "IRF5 RNA expression fold change", "setting": "[1]", "result": "IRF5 ↑ x2"}, {"measurement": "K+ voltage-gated channel, Shaw-related subfamily, member 3 RNA expression fold change", "setting": "[1]", "result": "member 3 ↑ x2.5"}, {"measurement": "LIF (cholinergic differentiation factor) RNA expression fold change", "setting": "[1]", "result": "factor) ↑ x2"}, {"measurement": "Natriuretic peptide receptor A/guanylate cyclase A (atrionatriuretic peptide receptor A) RNA expression fold change", "setting": "[1]", "result": "A) ↑ x2"}, {"measurement": "Opioid receptor, δ1 RNA expression fold change", "setting": "[1]", "result": "δ1 ↑ x2.5"}, {"measurement": "PDGFR, α polypeptide RNA expression fold change", "setting": "[1]", "result": "polypeptide ↑ x1.5"}, {"measurement": "Putative chemokine receptor; GTP-binding protein RNA expression fold change", "setting": "[1]", "result": "↑ x2"}, {"measurement": "SSTR2 RNA expression fold change", "setting": "[1]", "result": "SSTR 2↑ x2"}, {"measurement": "SSTR 3 RNA expression fold change", "setting": "[1]", "result": "SSTR 3↑ x3"}, {"measurement": "Solute carrier family 9 (Na+/H+ exchanger) isoform 3 regulatory factor 1 RNA expression fold change", "setting": "[1]", "result": "↑ x2"}, {"measurement": "TGF, β1 RNA expression fold change", "setting": "[1]", "result": "TGF, β 1 ↑ x1.5"}, {"measurement": "THR binding protein RNA expression fold change", "setting": "[1]", "result": "protein ↑x1.5"}, {"measurement": "THR, α (avian erythroblastic leukaemia viral (v-erb-a) oncogene homolog) RNA expression fold change", "setting": "[1]", "result": "homolog) ↑x1.5"}, {"measurement": "TNFR superfamily, member 12 RNA expression fold change", "setting": "[1]", "result": "↑ x2"}, {"measurement": "VWF precursor RNA expression fold change", "setting": "[1]", "result": "precursor ↑ x2"}, {"measurement": "δ sleep inducing peptide, immunoreactor RNA expression fold change", "setting": "[1]", "result": "x2.5"}, {"measurement": "Acetylserotonin O-methyl transferase-like RNA expression fold change", "setting": "[2]", "result": "↓ x3"}, {"measurement": "Angiotensin receptor 1B RNA expression fold change", "setting": "[2]", "result": 1, "unit": "B ↓ x1.5"}, {"measurement": "Calmodulin 3 (phosphorrylase kinase, δ) RNA expression fold change", "setting": "[2]", "result": "↓ x1.5"}, {"measurement": "Cdk (CDC2-like) RNA expression fold change", "setting": "[2]", "result": "↓ x2"}, {"measurement": "Death effecter domain-containing RNA expression fold change", "setting": "[2]", "result": "↓ x3.5"}, {"measurement": "Glucocorticoid receptor DNA binding factor 1 RNA expression fold change", "setting": "[2]", "result": "↓ x4.5"}, {"measurement": "Glutamate receptor, metabotropic 2 precursor RNA expression fold change", "setting": "[2]", "result": "precursor ↓ x3"}, {"measurement": "IGF-1 RNA expression fold change", "setting": "[2]", "result": "IGF-1 ↓ x2.5"}, {"measurement": "IGF-2 RNA expression fold change", "setting": "[2]", "result": "IGF-2 ↓ x2"}, {"measurement": "Insulin receptor RNA expression fold change", "setting": "[2]", "result": "↓ x3"}, {"measurement": "Na+ channel, nonvoltage-gated 1, β (Liddle syndrome) RNA expression fold change", "setting": "[2]", "result": "syndrome) ↓ x2"}, {"measurement": "PG-endoperoxide synthase 1 (prostaglandin G/H synthase and cyclooxygenase) RNA expression fold change", "setting": "[2]", "result": "↓ x3.5"}, {"measurement": "PI-3-kinase, catalytic, α polypeptide RNA expression fold change", "setting": "[2]", "result": "polypeptide ↓ x3"}, {"measurement": "PP 3 (formerly 2B), catalytic subunit, β isoform (calcineurin A β) RNA expression fold change", "setting": "[2]", "result": "A β) ↓ x2"}, {"measurement": "Solute carrier family 6 (neurotransmitter transporter, creatin), member 8 RNA expression fold change", "setting": "[2]", "result": "↓ x3"}, {"measurement": "THR-associated protein, 240kδ subunit RNA expression fold change", "setting": "[2]", "result": "subunit ↓ x1.5"}, {"measurement": "TNF, α-induced protein 3 RNA expression fold change", "setting": "[2]", "result": "↓ x1.5"}, {"measurement": "Vasopressin-activated calcium-mobilizing receptor-1 RNA expression fold change", "setting": "[2]", "result": "receptor-1 ↓ x2"}]}]}
